Test results reported in article PMC9232448 (European Journal of Drug Metabolism and Pharmacokinetics, 2022).
Like-named read-outs stand apart in the source and are kept apart here.

Assays:
CYP3A4 mRNA = CYP3A4 mRNA induction in plated cryopreserved human hepatocytes; type: cell-based; conditions: three donors; for true negative in vitro induction: statistical dose response and fold induction
[1] = Metabolic stability in hepatocyte induction incubations; type: in vitro ADME, human; conditions: last 24 hours of the incubation
[2] = cited from earlier work
CYP3A = conditions: human, in vivo; cited from earlier work
human hepatocytes = test: Cytotoxicity / bell-shaped curves in hepatocyte induction incubations; type: cell-based; conditions: for concentration above which cytotoxicity was seen: donor two; for concentrations removed from fitting (bell-shaped curve, suspected cytotoxicity): all donors
[3] = cited from earlier work; remark: listed apart in the source
[4] = Estimated free fraction in culture medium; conditions: bovine, hepatocyte culture medium with 1.25 mg/ml BSA
[5] = reported value before fu was set to 0.01

## O=C(O)c1ccc(CN2C[C@@H]3C[C@H]2CN3Cc2ccc(Oc3ccc(-c4ncco4)cc3)cc2)cc1 [Acebilustat, acebilustat]
CYP3A4 mRNA
  true negative in vitro induction: true in vitro negatives in all three donors
[1]
  % loss when comparing the Cavg to the T0 concentration (limited depletion): < 25%

## Cn1cnc2c(F)c(Nc3ccc(Br)cc3F)c(C(=O)NOCCO)cc21 [Binimetinib]
CYP3A4 mRNA
  concentration-dependent increase in CYP3A4 mRNA: concentration-dependent increases in all three donors

## COc1ccccc1Oc1c(NS(=O)(=O)c2ccc(C(C)(C)C)cc2)nc(-c2ncccn2)nc1OCCO [Bosentan]
[2]
  observed fu,in vitro: 0.38

## NC(=O)N1c2ccccc2C=Cc2ccccc21 [Carbamazepine]
CYP3A
  AUCR range: 0.124–0.603

## Nc1nc(-n2cc(C(=O)O)c(=O)c3cc(F)c(N4CC(O)C4)c(Cl)c32)c(F)cc1F [Delafloxacin, delafloxacin]
CYP3A4 mRNA
  true negative in vitro induction: negative in two donors
  concentration-dependent increase in CYP3A4 mRNA: concentration-dependent increases in one of three donors
Human hepatocytes; donor three
  concentration at which apparent cytotoxicity was seen: 300 µM
Human hepatocytes
  concentration above which cytotoxicity was seen: > 100 µM
[1]
  % loss when comparing the Cavg to the T0 concentration (limited depletion): < 25%

## Cn1c(Cn2ccc(C(F)(F)F)c(Oc3cc(Cl)cc(C#N)c3)c2=O)n[nH]c1=O [Doravirine, doravirine]
CYP3A4 mRNA
  concentration-dependent increase in CYP3A4 mRNA: concentration-dependent increases in all three donors
[1]
  % loss when comparing the Cavg to the T0 concentration (limited depletion): < 25%

## O=C1Nc2ccc(Cl)cc2[C@@](C#CC2CC2)(C(F)(F)F)O1 [Efavirenz]
CYP3A
  AUCR range: 0.240–0.929
[3]; plasma
  fu (reported plasma protein binding): 0.0025

## O=C(O)CSc1nnc(Br)n1-c1ccc(C2CC2)c2ccccc12 [Lesinurad, lesinurad]
CYP3A4 mRNA
  concentration-dependent increase in CYP3A4 mRNA: concentration-dependent increases in all three donors
Human hepatocytes
  concentrations removed from fitting (bell-shaped curve, suspected cytotoxicity): > 100 µM
[1]
  % loss when comparing the Cavg to the T0 concentration (limited depletion): < 25%

## CCC1(c2ccccc2)C(=O)NC(=O)NC1=O [Phenobarbital]
CYP3A
  AUCR: 0.394

## O=C1NC(=O)C(c2ccccc2)(c2ccccc2)N1 [Phenytoin]
CYP3A
  AUCR range: 0.105–0.607

## Cc1cc(CCCOc2c(C)cc(-c3noc(C(F)(F)F)n3)cc2C)on1 [Pleconaril]
[3]; [5]
  fu (reported plasma protein binding): 0.01
[4]
  fraction unbound: 0.256
[2]
  correction factor applied to nominal concentrations (nonspecific binding): 0.2

## Cc1nnc(C(=O)NC(C)(C)c2nc(C(=O)NCc3ccc(F)cc3)c(O)c(=O)n2C)o1 [Raltegravir, raltegravir]
CYP3A4 mRNA
  true negative in vitro induction: true in vitro negatives in all three donors

## CO[C@H]1/C=C/O[C@@]2(C)Oc3c(C)c(O)c4c(O)c(c(/C=N/N5CCN(C)CC5)c(O)c4c3C2=O)NC(=O)/C(C)=C\C=C\[C@H](C)[C@H](O)[C@@H](C)[C@@H](O)[C@@H](C)[C@H](OC(C)=O)[C@@H]1C [Rifampicin]
[1]
  % loss when comparing the Cavg to the T0 concentration (limited depletion): < 25%

## CO[C@H]1/C=C/O[C@@]2(C)Oc3c(C)c(O)c4c(O)c(c5c(nc6cc(C)ccn65)c4c3C2=O)NC(=O)/C(C)=C\C=C\[C@H](C)[C@H](O)[C@@H](C)[C@@H](O)[C@@H](C)[C@H](OC(C)=O)[C@@H]1C [Rifaximin, rifaximin]
CYP3A4 mRNA
  concentration-dependent increase in CYP3A4 mRNA: concentration-dependent increases in all three donors
[1]
  % loss when comparing the Cavg to the T0 concentration (limited depletion): < 25%

## Cc1cc(/C=C/C#N)cc(C)c1Nc1ccnc(Nc2ccc(C#N)cc2)n1 [Rilpivirine, rilpivirine]
CYP3A4 mRNA
  concentration-dependent increase in CYP3A4 mRNA: concentration-dependent increases in all three donors
Human hepatocytes
  concentration above which cytotoxicity was seen: > 100 µM
Human hepatocytes; donors one
  concentration above which signs of cytotoxicity were seen: > 30 µM

## CC(C)N(CCCCOCC(=O)NS(C)(=O)=O)c1cnc(-c2ccccc2)c(-c2ccccc2)n1 [Selexipag, selexipag]
CYP3A4 mRNA
  concentration-dependent increase in CYP3A4 mRNA: concentration-dependent increases in all three donors
[3]; [5]
  fu (reported plasma protein binding): < 0.01

## CC(C)OC(=O)[C@H](C)N[P@](=O)(OC[C@H]1O[C@@H](n2ccc(=O)[nH]c2=O)[C@](C)(F)[C@@H]1O)Oc1ccccc1 [Sofosbuvir, sofosbuvir]
CYP3A4 mRNA
  true negative in vitro induction: negative in one donor
  concentration-dependent increase in CYP3A4 mRNA: concentration-dependent increases in two of three donors
Human hepatocytes
  concentrations removed from fitting (bell-shaped curve, suspected cytotoxicity): 300 µM

## O=C(O)c1ccc2nc(-c3cc(Cl)cc(Cl)c3)oc2c1 [Tafamidis, tafamidis]
CYP3A4 mRNA
  concentration-dependent increase in CYP3A4 mRNA: concentration-dependent increases in all three donors
[3]; plasma
  fu (reported plasma protein binding): 0.005
[1]
  % loss when comparing the Cavg to the T0 concentration (limited depletion): < 25%

## CCC(=O)NC[C@@H]1C[C@H]1c1cccc2c1CCO2 [Tasimelteon, tasimelteon]
CYP3A4 mRNA
  concentration-dependent increase in CYP3A4 mRNA: concentration-dependent increases in all three donors

## C[C@H](Cn1cnc2c(N)ncnc21)OCP(=O)(O)O [Tenofovir, tenofovir]
CYP3A4 mRNA
  true negative in vitro induction: true in vitro negatives in all three donors
[1]
  % loss when comparing the Cavg to the T0 concentration (limited depletion): < 25%

## CCc1ccc(CCOc2ccc(CC3SC(=O)NC3=O)cc2)nc1 (stereo not drawn) [pioglitazone]
[2]
  observed fu,in vitro: 0.22

## CN(CCOc1ccc(CC2SC(=O)NC2=O)cc1)c1ccccn1 (stereo not drawn) [rosiglitazone]
[2]
  observed fu,in vitro: 0.15
